Activity and Km data for 7 molecules are collected here from ChEMBL document CHEMBL2073854, “Localization and function of the organic anion-transporting polypeptide Oatp2 in rat liver” (Gastroenterology, 1999).

Usually Km stands for the concentration of substrate that gives half-maximal velocity.

Data set [1] has as its target T1, Solute carrier organic anion transporter family member 1A4 (Rattus norvegicus, UniProt O35913).
T1 sequence (O35913 whole entry): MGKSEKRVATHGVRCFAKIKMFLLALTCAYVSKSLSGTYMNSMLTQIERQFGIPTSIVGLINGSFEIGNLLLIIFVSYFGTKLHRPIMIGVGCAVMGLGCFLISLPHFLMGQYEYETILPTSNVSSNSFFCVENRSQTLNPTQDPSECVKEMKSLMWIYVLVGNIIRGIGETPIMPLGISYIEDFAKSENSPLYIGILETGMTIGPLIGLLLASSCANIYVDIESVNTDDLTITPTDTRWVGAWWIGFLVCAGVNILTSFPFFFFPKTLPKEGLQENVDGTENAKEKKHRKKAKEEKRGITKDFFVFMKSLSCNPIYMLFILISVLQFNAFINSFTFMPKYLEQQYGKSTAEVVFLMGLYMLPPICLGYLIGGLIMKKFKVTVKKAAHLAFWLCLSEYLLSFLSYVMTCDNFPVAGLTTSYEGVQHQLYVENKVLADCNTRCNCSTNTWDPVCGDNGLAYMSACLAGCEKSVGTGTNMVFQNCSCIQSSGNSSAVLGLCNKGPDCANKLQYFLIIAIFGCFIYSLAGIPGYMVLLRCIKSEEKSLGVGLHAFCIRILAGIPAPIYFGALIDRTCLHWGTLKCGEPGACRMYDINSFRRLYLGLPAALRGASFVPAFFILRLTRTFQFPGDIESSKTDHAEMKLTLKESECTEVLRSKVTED
Put plainly: (§1) TP_TRANSPORTER: uptake in Xenopus laevis oocytes. The format is functional, cell-based. Conditions: oocyte.

For data set [2], the target named is T2, Solute carrier organic anion transporter family member 1A1 (Rattus norvegicus, UniProt P46720).
T2 sequence (P46720 whole entry): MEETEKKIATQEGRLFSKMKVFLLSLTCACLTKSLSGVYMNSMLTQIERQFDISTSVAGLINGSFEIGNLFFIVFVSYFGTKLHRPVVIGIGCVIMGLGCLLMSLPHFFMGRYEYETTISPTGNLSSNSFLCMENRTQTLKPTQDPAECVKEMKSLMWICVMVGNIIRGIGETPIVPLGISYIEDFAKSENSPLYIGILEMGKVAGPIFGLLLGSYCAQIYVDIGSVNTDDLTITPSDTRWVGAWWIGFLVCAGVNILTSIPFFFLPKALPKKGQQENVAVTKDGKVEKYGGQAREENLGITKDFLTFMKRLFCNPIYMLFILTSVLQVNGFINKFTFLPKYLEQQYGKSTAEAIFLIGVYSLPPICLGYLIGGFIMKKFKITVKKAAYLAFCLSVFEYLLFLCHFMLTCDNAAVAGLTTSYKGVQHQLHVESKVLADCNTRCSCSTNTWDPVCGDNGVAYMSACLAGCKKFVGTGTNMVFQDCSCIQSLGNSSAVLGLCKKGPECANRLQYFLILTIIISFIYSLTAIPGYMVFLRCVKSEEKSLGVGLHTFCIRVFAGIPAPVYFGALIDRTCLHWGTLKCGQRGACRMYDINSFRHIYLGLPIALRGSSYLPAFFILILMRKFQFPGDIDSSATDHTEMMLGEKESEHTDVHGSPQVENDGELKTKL
The description is as §1. The format is functional, cell-based. The settings on record: oocyte.

Substrate in data set [3]: C[C@H](CCC(=O)NCCS(=O)(=O)O)[C@H]1CC[C@H]2[C@@H]3[C@H](O)C[C@@H]4C[C@H](O)CC[C@]4(C)[C@H]3CC[C@]12C
Described as §1. Type of data set: functional, cell-based, Oocyte.

Substrate in data set [4]: CC(C)C[C@@H]1NC(=O)[C@@H](C(C)C)NC(=O)[C@@H]2CCCN2C(=O)[C@@H](CC(=O)O)NC(=O)[C@@H](Cc2c[nH]c3ccccc23)NC1=O
The data set is described as §1. Type of data set: functional, cell-based, Oocyte.

Substrate in data set [5]: [H][C@@]12CC=C3C[C@@H](OS(=O)(=O)O)CC[C@]3(C)[C@@]1([H])CC[C@]1(C)C(=O)CC[C@@]21[H]
The description is as §1. The format is functional, cell-based, Oocyte.

Substrate in data set [6]: C[C@H](CCC(=O)NCCS(=O)(=O)O)[C@H]1CC[C@H]2[C@@H]3[C@@H](O)C[C@@H]4C[C@H](O)CC[C@]4(C)[C@H]3CC[C@]12C
The description is as §1. The format is functional, cell-based, Oocyte.

Substrate in data set [7]: [H][C@]12CC[C@]3([H])[C@]([H])(CC[C@]4(C)C([C@H](C)CCC(=O)NCCS(=O)(=O)O)CC[C@@]34[H])[C@@]1(C)CC[C@@H](OS(=O)(=O)O)C2
The data set is described as §1. The format is functional, cell-based, Oocyte.

Consider `CCCCC/C=C\C\C=C/C=C/C=C/[C@@H](SC[C@@H](NC(=O)CC[C@H](N)C(=O)O)C(=O)NCC(=O)O)[C@@H](O)CCCC(=O)O` [LEUKOTRIEN C4], for which the Activity result in data set [1] is “is not a substrate [-]”. For the molecule `O=C1OC(c2ccc(O)c(S(=O)(=O)[O-])c2)(c2ccc(O)c(S(=O)(=O)[O-])c2)c2c(Br)c(Br)c(Br)c(Br)c21.[Na+].[Na+]` [SULFOBROMOPHTHALEIN SODIUM], in data set [1], the Activity entry was “is not a substrate [-]”.

In the case of `C=CC1=C(C)/C(=C/c2[nH]c(Cc3[nH]c(/C=C4\NC(=O)C(C)=C4C=C)c(C)c3CCC(=O)O[C@@H]3OC(C(=O)O)[C@@H](O)C(O)C3O)c(CCC(=O)O)c2C)NC1=O` (some centres not stated) [BILIRUBIN MONOGLUCURONIDE], the Activity entry in data set [2] is “substrate [+]”; in data set [1] it was “is not a substrate [-]”. Consider `C[C@H](CCC(=O)NCCS(=O)(=O)O)C1CC[C@H]2[C@@H]3CC[C@@H]4C[C@H](OS(=O)(=O)O)CC[C@]4(C)[C@H]3CC[C@]12C` (some centres not stated), for which, in data set [1], the Activity result was “is not a substrate [-]”. As to GADOXETATE, the Activity entry in data set [1] was “is not a substrate [-]”.

B1: Solute carrier organic anion transporter family member 1A4 (Rattus norvegicus) (protein)
chain: T1 sequence (O35913 whole entry)
For the molecule B1, the Km is 12 µM in data set [3], 30 µM in data set [4], 17 µM in data set [5] and 17 µM in data set [6].

B2: Solute carrier organic anion transporter family member 1A1 (Rattus norvegicus) (protein)
chain: T2 sequence (P46720 whole entry)
Turning to B2, the Km came out at 600 µM in data set [4] and 6 µM in data set [7].
